The text below walks through data of PubChem BioAssay AID330 (DTP/NCI, 2004).

Values joined by “and” are separate entries in the source; they are usually repeats but may differ in a detail not shown here. Identical values can stand only once. Toxic doses and inconclusive results are not listed.

The test system of the assay is P388 leukemia ip, CD2F1 mice, survival T/C. Kind of assay: NCI In Vivo Anticancer Drug Screen. Data for tumor model P388 Leukemia (intraperitoneal) in CD2F1 (CDF1) mice. Conditions: endpoint: median survival time, higher = longer survival. A digest of the protocol:
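Mice carrying the transplanted tumor received test compound or vehicle. Survival was recorded in each group, and the value is the treated-group measurement divided by that of the vehicle-treated control group.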

Setting [1] is: dose: 50.0 mg/kg/injection, schedule: Q01DX005 (ip), vehicle: Klucel (hydroxypropylcellulose) (HPC).
The mark [2] stands for this setting: dose: 50.0 mg/kg/injection, schedule: Q01DX009 (ip), vehicle: saline with Tween-80.
Where [3] appears, read: dose: 100.0 mg/kg/injection, schedule: Q01DX009 (ip), vehicle: saline with Tween-80.
Setting [4] is: dose: 50.0 mg/kg/injection, schedule: Q04DX003 (ip), vehicle: saline with Tween-80.
The mark [5] stands for this setting: dose: 100.0 mg/kg/injection, schedule: Q04DX003 (ip), vehicle: saline with Tween-80.
Setting [6] is: dose: 200.0 mg/kg/injection, schedule: Q04DX003 (ip), vehicle: saline with Tween-80.
Where [7] appears, read: dose: 50.0 mg/kg/injection, schedule: Q01DX005 (ip), vehicle: saline with Tween-80.
[8] abbreviates: dose: 100.0 mg/kg/injection, schedule: Q01DX005 (ip), vehicle: saline with Tween-80.
Setting [9] is: dose: 200.0 mg/kg/injection, schedule: Q01DX005 (ip), vehicle: saline with Tween-80.

Turning to `CC(NNC(=S)N1CCN(c2ccccn2)CC1)c1ccccn1` (configuration not stated), the T/C is 99 % of control (dose: 12.5 mg/kg/injection, schedule: Q01DX005 (ip), vehicle: Klucel (hydroxypropylcellulose) (HPC)); 101 % of control (dose: 25.0 mg/kg/injection, schedule: Q01DX005 (ip), vehicle: Klucel (hydroxypropylcellulose) (HPC)); 109 % of control and 95 % of control under setting [1].

`Cc1ccccc1-n1c(C)nc2[nH]ncc2c1=O`: the T/C is, setting by setting: under setting [1], 105 % of control; (dose: 100.0 mg/kg/injection, schedule: Q01DX005 (ip), vehicle: Klucel (hydroxypropylcellulose) (HPC)) 98 % of control; (dose: 200.0 mg/kg/injection, schedule: Q01DX005 (ip), vehicle: Klucel (hydroxypropylcellulose) (HPC)) 96 % of control.

For the compound `CC(C)=CCC/C(C)=C/COc1cc(O)c2c(O)c3c(cc2c1)CC(C)(O)CC3=O` (configuration not stated), the T/C reads like this: (dose: 6.25 mg/kg/injection, schedule: Q01DX009 (ip), vehicle: saline + Tween-80 + alcohol) 107 % of control; (dose: 12.5 mg/kg/injection, schedule: Q01DX009 (ip), vehicle: saline + Tween-80 + alcohol) 105 % of control; (dose: 25.0 mg/kg/injection, schedule: Q01DX009 (ip), vehicle: saline + Tween-80 + alcohol) 107 % of control.

`CCCCCCCCOC(=O)c1ccc(O)cc1`: the T/C (dose: 12.5 mg/kg/injection, schedule: Q01DX009 (ip), vehicle: saline with Tween-80) was 99 % of control; the T/C (dose: 25.0 mg/kg/injection, schedule: Q01DX009 (ip), vehicle: saline with Tween-80) was 100 % of control; the T/C under setting [2] was 99 % of control and 96 % of control; the T/C under setting [3] was 92 % of control.

Regarding `CC(C)N(C(=O)c1ccc(Cl)c(Cl)c1)C(C)C`, the T/C is, setting by setting: (dose: 12.5 mg/kg/injection, schedule: Q04DX003 (ip), vehicle: saline with Tween-80) 102 % of control and 103 % of control; (dose: 25.0 mg/kg/injection, schedule: Q04DX003 (ip), vehicle: saline with Tween-80) 102 % of control and 97 % of control; under setting [4], 100 % of control and 97 % of control; under setting [5], 103 % of control and 106 % of control (2×); under setting [6], 105 % of control; (dose: 400.0 mg/kg/injection, schedule: Q04DX003 (ip), vehicle: saline with Tween-80) 101 % of control.

In the case of `CN1CCC/C1=C/C(=O)c1cccc([N+](=O)[O-])c1`, the T/C by setting is: (dose: 100.0 mg/kg/injection, schedule: Q04DX003 (ip), vehicle: Klucel (hydroxypropylcellulose) (HPC)) 108 % of control; (dose: 200.0 mg/kg/injection, schedule: Q04DX003 (ip), vehicle: Klucel (hydroxypropylcellulose) (HPC)) 106 % of control.

As to `COc1cccc(OC)c1OCCBr`, the T/C under setting [2] was 103 % of control; the T/C under setting [3] is 98 % of control; the T/C (dose: 200.0 mg/kg/injection, schedule: Q01DX009 (ip), vehicle: saline with Tween-80) is 100 % of control.

As for `CSc1nc(N)c(C(=O)Nc2ccc3ccccc3c2)s1`, the T/C is, setting by setting: (dose: 50.0 mg/kg/injection, schedule: Q01DX009 (ip), vehicle: Klucel (hydroxypropylcellulose) (HPC)) 107 % of control; (dose: 100.0 mg/kg/injection, schedule: Q01DX009 (ip), vehicle: Klucel (hydroxypropylcellulose) (HPC)) 98 % of control; (dose: 200.0 mg/kg/injection, schedule: Q01DX009 (ip), vehicle: Klucel (hydroxypropylcellulose) (HPC)) 99 % of control.

For the compound `COc1ccc(NC(=O)C(COCc2ccccc2)C(C)=O)cc1` (configuration not stated), the T/C by setting is: (dose: 60.0 mg/kg/injection, schedule: Q01DX005 (ip), vehicle: saline with Tween-80) 94 % of control; (dose: 120.0 mg/kg/injection, schedule: Q01DX005 (ip), vehicle: saline with Tween-80) 91 % of control; (dose: 240.0 mg/kg/injection, schedule: Q01DX005 (ip), vehicle: saline with Tween-80) 92 % of control.

In the case of `CC(=O)NC1CCCCC1C1CCC(N)CC1` (configuration not stated), the T/C reads like this: under setting [7], 99 % of control; under setting [8], 102 % of control; under setting [9], 87 % of control.

For `O=C1C/C(=N\O)CON1c1ccccc1`, the T/C is 106 % of control (dose: 100.0 mg/kg/injection, schedule: Q01DX002 (ip), vehicle: Klucel (hydroxypropylcellulose) (HPC)); 98 % of control (dose: 200.0 mg/kg/injection, schedule: Q01DX002 (ip), vehicle: Klucel (hydroxypropylcellulose) (HPC)); 90 % of control (dose: 400.0 mg/kg/injection, schedule: Q01DX002 (ip), vehicle: Klucel (hydroxypropylcellulose) (HPC)).

On to `Cc1cc(C)n2[nH]c(=O)cc2n1`, for which the T/C runs as follows: (dose: 25.0 mg/kg/injection, schedule: Q01DX009 (ip), vehicle: suspension in saline) 99 % of control; (dose: 50.0 mg/kg/injection, schedule: Q01DX009 (ip), vehicle: suspension in saline) 97 % of control; (dose: 100.0 mg/kg/injection, schedule: Q01DX009 (ip), vehicle: suspension in saline) 97 % of control; (dose: 200.0 mg/kg/injection, schedule: Q01DX009 (ip), vehicle: suspension in saline) 98 % of control.

For `O=C(CC(O)(C(F)(F)F)C(F)(F)F)c1ccc(Cl)cc1`, the T/C is, setting by setting: under setting [4], 104 % of control; under setting [5], 100 % of control; under setting [6], 104 % of control.

As for `CO[C@H](/C(C)=C/C=C/C(C)=C/c1coc(C)n1)[C@H](C)[C@H]1C[C@@H](O)[C@@]2(C)O[C@H]2/C=C/[C@@H](C)[C@@H]2C[C@@H](CC(=O)O2)C[C@H]2O[C@@H]2C(=O)O1`, the T/C was 150 % of control (dose: 0.1 mg/kg/injection, schedule: Q01DX005 (ip), vehicle: Klucel (hydroxypropylcellulose) (HPC)); 150 % of control (dose: 0.12 mg/kg/injection, schedule: Q01DX005 (ip), vehicle: Klucel (hydroxypropylcellulose) (HPC)); 152 % of control and 160 % of control (dose: 0.14 mg/kg/injection, schedule: Q01DX005 (ip), vehicle: Klucel (hydroxypropylcellulose) (HPC)); 160 % of control (dose: 0.18 mg/kg/injection, schedule: Q01DX005 (ip), vehicle: Klucel (hydroxypropylcellulose) (HPC)); 166 % of control (dose: 0.24 mg/kg/injection, schedule: Q01DX005 (ip), vehicle: Klucel (hydroxypropylcellulose) (HPC)); 171 % of control and 184 % of control and 195 % of control (dose: 0.45 mg/kg/injection, schedule: Q01DX005 (ip), vehicle: Klucel (hydroxypropylcellulose) (HPC)). The T/C reads like this: (dose: 0.67 mg/kg/injection, schedule: Q01DX005 (ip), vehicle: Klucel (hydroxypropylcellulose) (HPC)) 181 % of control and 191 % of control; (dose: 10.0 micrograms/kg/injection, schedule: Q01DX005 (ip), vehicle: Klucel (hydroxypropylcellulose) (HPC)) 104 % of control; (dose: 20.0 micrograms/kg/injection, schedule: Q01DX005 (ip), vehicle: Klucel (hydroxypropylcellulose) (HPC)) 109 % of control and 123 % of control; (dose: 80.0 micrograms/kg/injection, schedule: Q01DX005 (ip), vehicle: Klucel (hydroxypropylcellulose) (HPC)) 163 % of control.

`OCCN1CCOC(O)(c2cccc(C(F)(F)F)c2)C1` (configuration not stated): the T/C runs as follows: under setting [7], 101 % of control; under setting [8], 95 % of control; under setting [9], 96 % of control.

In the case of `COC1CC(OC2C(C)OC(OC3C(C)OC(OC4CCC5(C)C(=CCC6(O)C5CC(OC(=O)c5ccc(O)cc5)C5(C)C(O)(C(C)=O)CCC65O)C4)CC3OC)CC2OC)OC(C)C1O` (configuration not stated) (tested in a mixture with another compound), the T/C was 100 % of control (dose: 12.5 mg/kg/injection, schedule: Q01DX005 (ip), vehicle: distilled water + Tween-80 + alcohol); 94 % of control (dose: 25.0 mg/kg/injection, schedule: Q01DX005 (ip), vehicle: distilled water + Tween-80 + alcohol); 101 % of control (dose: 50.0 mg/kg/injection, schedule: Q01DX005 (ip), vehicle: distilled water + Tween-80 + alcohol); 115 % of control (dose: 100.0 mg/kg/injection, schedule: Q01DX005 (ip), vehicle: distilled water + Tween-80 + alcohol).

Consider `CC[CH2][Pb]([CH2]CC)([CH2]CC)[O]C(=O)C1CCCCC1`, for which the T/C is 105 % of control and 97 % of control (dose: 1.25 mg/kg/injection, schedule: Q01DX009 (ip), vehicle: saline with Tween-80); 111 % of control and 122 % of control (dose: 2.5 mg/kg/injection, schedule: Q01DX009 (ip), vehicle: saline with Tween-80); 122 % of control (dose: 5.0 mg/kg/injection, schedule: Q01DX009 (ip), vehicle: saline with Tween-80); 114 % of control (dose: 10.0 mg/kg/injection, schedule: Q01DX009 (ip), vehicle: saline with Tween-80).

In the case of `Cc1cc(C)c[n+]([O-])c1`, the T/C runs as follows: (dose: 12.5 mg/kg/injection, schedule: Q01DX009 (ip), vehicle: saline) 111 % of control; (dose: 25.0 mg/kg/injection, schedule: Q01DX009 (ip), vehicle: saline) 111 % of control; (dose: 50.0 mg/kg/injection, schedule: Q01DX009 (ip), vehicle: saline) 111 % of control.
